In the NIST ThermoML archive (doi:10.1016/j.tca.2015.06.017):

Assay: xn = mol fraction of the nth substance listed
Conditions: Liquid, Vibrating tube method

CCCCCl [1-chlorobutane] + CCCCCCC
mass density [kg/m3]
Conditions | 283.15 K | 293.15 K | 298.15 K
100 kPa, x2 = 0.0508 | 882.75 | 871.93 | 866.47
100 kPa, x2 = 0.0994 | 869.33 | 858.68 | 853.29
100 kPa, x2 = 0.2013 | 842.84 | 832.5 | 827.27
100 kPa, x2 = 0.3015 | 818.82 | 808.71 | 803.67
100 kPa, x2 = 0.4008 | 796.7 | 786.9 | 781.96
100 kPa, x2 = 0.5026 | 775.72 | 766.2 | 761.38
100 kPa, x2 = 0.6012 | 756.89 | 747.61 | 742.88
100 kPa, x2 = 0.7003 | 739.21 | 730.17 | 725.57
100 kPa, x2 = 0.7995 | 722.69 | 713.87 | 709.43
100 kPa, x2 = 0.9011 | 706.94 | 698.34 | 694
100 kPa, x2 = 0.9494 | 699.8 | 691.32 | 687.02
2000 kPa, x2 = 0.0508 | 884.62 | 873.92 | 868.56
2000 kPa, x2 = 0.0994 | 871.23 | 860.68 | 855.4
2000 kPa, x2 = 0.2013 | 844.73 | 834.49 | 829.39
2000 kPa, x2 = 0.3015 | 820.72 | 810.76 | 805.75
2000 kPa, x2 = 0.4008 | 798.63 | 788.97 | 784.08
2000 kPa, x2 = 0.5026 | 777.65 | 768.2 | 763.54
2000 kPa, x2 = 0.6012 | 758.81 | 749.57 | 745
2000 kPa, x2 = 0.7003 | 741.14 | 732.18 | 727.68
2000 kPa, x2 = 0.7995 | 724.62 | 715.87 | 711.52
2000 kPa, x2 = 0.9011 | 708.86 | 700.31 | 696.1
2000 kPa, x2 = 0.9494 | 701.72 | 693.28 | 689.1
5000 kPa, x2 = 0.0508 | 887.46 | 876.95 | 871.65
5000 kPa, x2 = 0.0994 | 874.03 | 863.68 | 858.46
5000 kPa, x2 = 0.2013 | 847.53 | 837.52 | 832.44
5000 kPa, x2 = 0.3015 | 823.49 | 813.71 | 808.8
5000 kPa, x2 = 0.4008 | 801.35 | 791.93 | 787.1
5000 kPa, x2 = 0.5026 | 780.38 | 771.16 | 766.44
5000 kPa, x2 = 0.6012 | 761.44 | 752.54 | 747.93
5000 kPa, x2 = 0.7003 | 743.76 | 735.08 | 730.59
5000 kPa, x2 = 0.7995 | 727.26 | 718.74 | 714.37
5000 kPa, x2 = 0.9011 | 711.45 | 703.17 | 698.9
5000 kPa, x2 = 0.9494 | 704.3 | 696.13 | 691.9
7000 kPa, x2 = 0.0508 | 889.28 | 878.92 | 873.68
7000 kPa, x2 = 0.0994 | 875.85 | 865.65 | 860.48
7000 kPa, x2 = 0.2013 | 849.37 | 839.47 | 834.46
7000 kPa, x2 = 0.3015 | 825.31 | 815.63 | 810.76
7000 kPa, x2 = 0.4008 | 803.16 | 793.83 | 789.09
7000 kPa, x2 = 0.5026 | 782.19 | 773.03 | 768.42
7000 kPa, x2 = 0.6012 | 763.28 | 754.35 | 749.89
7000 kPa, x2 = 0.7003 | 745.54 | 736.9 | 732.52
7000 kPa, x2 = 0.7995 | 729.04 | 720.57 | 716.31
7000 kPa, x2 = 0.9011 | 713.2 | 704.95 | 700.8
7000 kPa, x2 = 0.9494 | 706.05 | 697.9 | 693.79
10000 kPa, x2 = 0.0508 | 891.99 | 881.85 | 876.62
10000 kPa, x2 = 0.0994 | 878.55 | 868.56 | 863.41
10000 kPa, x2 = 0.2013 | 852.02 | 842.33 | 837.33
10000 kPa, x2 = 0.3015 | 827.93 | 818.52 | 813.6
10000 kPa, x2 = 0.4008 | 805.75 | 796.66 | 791.87
10000 kPa, x2 = 0.5026 | 784.72 | 775.83 | 771.16
10000 kPa, x2 = 0.6012 | 765.77 | 757.17 | 752.57
10000 kPa, x2 = 0.7003 | 748.04 | 739.62 | 735.16
10000 kPa, x2 = 0.7995 | 731.51 | 723.28 | 718.95
10000 kPa, x2 = 0.9011 | 715.65 | 707.66 | 703.38
10000 kPa, x2 = 0.9494 | 708.47 | 700.58 | 696.37
20000 kPa, x2 = 0.0508 | 900.53 | 890.77 | 885.92
20000 kPa, x2 = 0.0994 | 887.08 | 877.47 | 872.69
20000 kPa, x2 = 0.2013 | 860.48 | 851.18 | 846.51
20000 kPa, x2 = 0.3015 | 836.34 | 827.25 | 822.71
20000 kPa, x2 = 0.4008 | 814.1 | 805.35 | 800.83
20000 kPa, x2 = 0.5026 | 793.03 | 784.43 | 780.1
20000 kPa, x2 = 0.6012 | 773.97 | 765.68 | 761.37
20000 kPa, x2 = 0.7003 | 756.2 | 748.06 | 743.91
20000 kPa, x2 = 0.7995 | 739.54 | 731.66 | 727.56
20000 kPa, x2 = 0.9011 | 723.61 | 715.92 | 711.9
20000 kPa, x2 = 0.9494 | 716.4 | 708.79 | 704.84
30000 kPa, x2 = 0.0508 | 908.4 | 899 | 894.38
30000 kPa, x2 = 0.0994 | 894.89 | 885.66 | 881.09
30000 kPa, x2 = 0.2013 | 868.22 | 859.31 | 854.8
30000 kPa, x2 = 0.3015 | 843.95 | 835.33 | 830.93
30000 kPa, x2 = 0.4008 | 821.67 | 813.25 | 808.96
30000 kPa, x2 = 0.5026 | 800.5 | 792.34 | 788.14
30000 kPa, x2 = 0.6012 | 781.4 | 773.46 | 769.31
30000 kPa, x2 = 0.7003 | 763.51 | 755.75 | 751.75
30000 kPa, x2 = 0.7995 | 746.78 | 739.24 | 735.28
30000 kPa, x2 = 0.9011 | 730.75 | 723.44 | 719.55
30000 kPa, x2 = 0.9494 | 723.48 | 716.27 | 712.41
40000 kPa, x2 = 0.0508 | 915.72 | 906.7 | 902.26
40000 kPa, x2 = 0.0994 | 902.19 | 893.3 | 888.92
40000 kPa, x2 = 0.2013 | 875.41 | 866.83 | 862.54
40000 kPa, x2 = 0.3015 | 851.07 | 842.76 | 838.54
40000 kPa, x2 = 0.4008 | 828.73 | 820.58 | 816.49
40000 kPa, x2 = 0.5026 | 807.4 | 799.52 | 795.57
40000 kPa, x2 = 0.6012 | 788.26 | 780.6 | 776.69
40000 kPa, x2 = 0.7003 | 770.26 | 762.81 | 759
40000 kPa, x2 = 0.7995 | 753.48 | 746.17 | 742.45
40000 kPa, x2 = 0.9011 | 737.36 | 730.25 | 726.58
40000 kPa, x2 = 0.9494 | 730.05 | 723.03 | 719.41
50000 kPa, x2 = 0.0508 | 922.47 | 913.76 | 909.49
50000 kPa, x2 = 0.0994 | 908.9 | 900.34 | 896.12
50000 kPa, x2 = 0.2013 | 882.07 | 873.81 | 869.69
50000 kPa, x2 = 0.3015 | 857.66 | 849.63 | 845.59
50000 kPa, x2 = 0.4008 | 835.21 | 827.43 | 823.5
50000 kPa, x2 = 0.5026 | 813.85 | 806.3 | 802.4
50000 kPa, x2 = 0.6012 | 794.6 | 787.26 | 783.45
50000 kPa, x2 = 0.7003 | 776.55 | 769.39 | 765.7
50000 kPa, x2 = 0.7995 | 759.63 | 752.7 | 749.08
50000 kPa, x2 = 0.9011 | 743.44 | 736.68 | 733.13
50000 kPa, x2 = 0.9494 | 736.1 | 729.41 | 725.89
60000 kPa, x2 = 0.0508 | 928.92 | 920.42 | 916.33
60000 kPa, x2 = 0.0994 | 915.32 | 906.99 | 902.96
60000 kPa, x2 = 0.2013 | 888.42 | 880.39 | 876.46
60000 kPa, x2 = 0.3015 | 863.89 | 856.15 | 852.33
60000 kPa, x2 = 0.4008 | 841.39 | 833.88 | 830.1
60000 kPa, x2 = 0.5026 | 819.91 | 812.63 | 809.01
60000 kPa, x2 = 0.6012 | 800.58 | 793.52 | 790
60000 kPa, x2 = 0.7003 | 782.47 | 775.64 | 772.14
60000 kPa, x2 = 0.7995 | 765.51 | 758.87 | 755.42
60000 kPa, x2 = 0.9011 | 749.23 | 742.77 | 739.4
60000 kPa, x2 = 0.9494 | 741.85 | 735.46 | 732.12
65000 kPa, x2 = 0.0508 | 931.98 | 923.76 | 919.61
65000 kPa, x2 = 0.0994 | 918.36 | 910.28 | 906.21
65000 kPa, x2 = 0.2013 | 891.39 | 883.59 | 879.69
65000 kPa, x2 = 0.3015 | 866.87 | 859.28 | 855.51
65000 kPa, x2 = 0.4008 | 844.29 | 836.95 | 833.25
65000 kPa, x2 = 0.5026 | 822.81 | 815.67 | 812.1
65000 kPa, x2 = 0.6012 | 803.45 | 796.5 | 793.04
65000 kPa, x2 = 0.7003 | 785.25 | 778.5 | 775.16
65000 kPa, x2 = 0.7995 | 768.28 | 761.67 | 758.43
65000 kPa, x2 = 0.9011 | 751.95 | 745.52 | 742.37
65000 kPa, x2 = 0.9494 | 744.53 | 738.19 | 735.07
